Patent US20100056458A1, “Peptides Inhibiting Angiotensin-Converting Enzyme” (CAMPINA NEDERLAND HOLDING B.V., priority 2005, published 2010)

test system: angiotensin-converting enzyme (ACE); assay: HPLC with mass spectrometry and on-line bioassay unit for assessing ACE-inhibiting activity; assay type: biochemical; conditions: another batch of the same caseinate
Source text: The identity and the activity of the peptides and their mixtures can be determined by known methods, e.g. as described by Van Elswijk et al. J Chromatography A, 1020 (2003) 45-58, involving liquid chromatography coupled to mass spectroscopy, and on-line bioassay. […] The IC50 can be determined in vitro as described by V. Vermeirsen, J. van Camp & J. Verstraete, “Optimisation and validation of an angiotensin-converting enzyme inhibition assay for the screening of bioactive peptides”. J. Biochem. Biophys. Methods 51, 75-87 (2002).
The peptides obtained according to example I, were analysed using HPLC as described by Van Elswijk et al. J Chromatography A 1020 (2003) 45-58. The HPLC eluate was divided over a mass spectrometry for determining the peptide structure and a bioassay unit for assessing the ACE-inhibiting activity. The following peptides were identified: AVP (SEQ ID No. 25), LV (SEQ ID No. 5) and IV (SEQ ID No. 1). Another batch of the same caseinate contained the peptides KIHP (SEQ ID No. 28), KK (SEQ ID No. 73), VPYPQR (SEQ ID No. 20), and KYKVPQ (SEQ ID No. 91). Starting with other casein sources the peptides VLGPV (SEQ ID No. 10), VLPVPQK (SEQ ID No. 75), VPYPQ (SEQ ID No. 21), KK (SEQ ID No. 73), VNELSK (SEQ ID No. 76), and […] (SEQ ID No. 33) were found.
Similarly the product from example II was analysed and contained IAEKT (SEQ ID No. 57), LDIQK (SEQ ID No. 74) and LKALP (SEQ ID No. 64). Starting from other whey protein sources WPC 60 or whey protein isolate, VLGPV (SEQ ID No. 10), VLPVPQ (SEQ ID No. 18), MKGLDI (SEQ ID No. 41), LR (SEQ ID No. 44), MHIRLS (SEQ ID No. 48), IIA (SEQ ID No. 56) were identified.

Substance	identified as ACE-inhibiting peptide
KIHP (listed as Bos taurus) [β-casein-derived peptide]	contained
KYKVPQ (listed as Bos taurus)	contained
VPYPQR (listed as Bos taurus) [β-casein-derived peptide]	contained

same assay, conditions: hydrolysate of example I (calcium caseinate)

Substance	identified as ACE-inhibiting peptide
AVP	identified

same assay, conditions: other casein sources

Substance	identified as ACE-inhibiting peptide
FFVAPFPEVFG (listed as Bos taurus)	found
VLGPV (listed as Bos taurus) [β-casein peptide]	found
VLPVPQK (listed as Bos taurus)	found
VNELSK (listed as Bos taurus)	found
VPYPQ (listed as Bos taurus) [β-casein-derived peptide]	found

same assay, conditions: other whey protein sources WPC 60 or whey protein isolate

Substance	identified as ACE-inhibiting peptide
IIA (listed as Bos taurus)	identified
MHIRLS (listed as Bos taurus)	identified
MKGLDI (listed as Bos taurus) [β-lactoglobulin-derived peptide]	identified
VLGPV (listed as Bos taurus) [β-casein peptide]	identified
VLPVPQ (listed as Bos taurus)	identified

same assay, conditions: product from example II (WPC 80 hydrolysate)

Substance	identified as ACE-inhibiting peptide
IAEKT (listed as Bos taurus) [β-lactoglobulin-derived peptide]	contained
LDIQK (listed as Bos taurus) [β-lactoglobulin-derived peptide]	contained
LKALP (listed as Bos taurus) [β-lactoglobulin-derived peptide]	contained
